Columns and labels:
[1] = tested on: T1, GRASP55‐JAM‐C complex; test: HTRF assay, GRASP55-JAM-C interaction; type: biochemical, human; details: 400µM compound; Figure 1c
T1 construct: Human GRASP55 tandem PDZ; made in house; host or cells: E. coli BL21 (DE3)
Description: HTRF assays were performed in white 96Well Small VolumeHiBase Polystyrene Microplates (Greiner) with a total working volume of […], as described previously (Milhas et al., 2016). Briefly, compounds were firstly dispensed into the wells at 400 µM for the primary screen or with serial DMSO dilutions for IC50 measurement assays. Primary screening assays have been performed in monoplicate while IC50 measurements were performed in triplicates. All HTRF reagents were purchased from CisBio Bioassays and reconstituted according to the supplier protocols. The plates were spun for 3 min at 500 × g and then incubated at 4°C for 16 h. The HTRF signals were recorded on a POLAR star Omega plate reader (BMG Labtech) with an excitation filter at 337 nm and fluorescence wavelength measurement at 620 and 665 nm, an integration delay of 60 µs and an integration time of 400 µs. Results were analysed with a two‐wavelength signal ratio: [intensity (665 nm)/intensity (620 nm)] × 10^4. Percentage of inhibition was calculated using the following equation: % inhibition = [(compound signal)–(min signal)]/[(max signal)–(min signal)] × 100, where ‘max signal’ is the signal ratio with the compound vehicle alone (DMSO) and ‘min signal’ the signal ratio without protein B. For IC50 measurements, values were normalized and fitted with Prism (GraphPad software) using the following equation: Y = 100/(1+((X/ IC50)ˆHill slope)).
The search strategy for PDZ2 syntenin inhibitors was based on the PDZ targeted library developed from Enamine compound collection. The PDZ targeted library was developed to cover virtually all PDZ domains. Consequently, to create the syntenin PDZ2 focused library we used two independent paths: docking of the PDZ targeted library against structures of syntenin PDZ2 available in Protein Data Bank and a random selection from the PDZ targeted library. The docking has produced 21 virtual hits, which were added to 118 randomly selected compounds (10% of the pan PDZ library). The resultant set of 139 compounds, syntenin PDZ library was subjected to experimental validation. The primary screen was performed at 400µM using a previously validated Homogeneous Time Resolved Fluorescence (HTRF) assay (Milhas et al., 2016). HTRF is based on Fluorescence Resonance Energy Transfer (FRET) between two fluorescent reagents. In the present case, Anti‐GST‐Terbium antibody and streptavidin‐bound Dynamic2 were used as donor and acceptor respectively. Interactions between GST PDZ‐fusion proteins and biotinylated peptides containing PDZ binding motifs were challenged with the potential inhibitors. In parallel, control experiments were performed with a biotinylated‐GST to verify that compounds were not interfering with the FRET signal in a non‐specific manner. To identify inhibitors of syntenin PDZ interactions, we tested for the effect of the 139 compounds on syntenin‐SDC2 and syntenin‐Frizzled7 complexes (Figure 1a; Table S1). When the HTRF signal dropped below 0.9, inhibition was considered as effective. […] Noteworthy, these compounds had no effect on other PDZ complexes like GRASP55‐JAM‐B or GRASP55‐JAM‐C and Erbin‐Erbb2 or Erbin‐P0071 (Figure 1c).

[2] = molecular target: T2, syntenin‐PDZ tandem (without C‐terminal domain) (Homo sapiens, UniProt O00560); test: Surface plasmon resonance (BIAcore), syntenin PDZ tandem; type: binding; details: compound in PBS, read-out: apparent KD, syntenin‐PDZ tandem (without C‐terminal domain)
T2 construct: made in house; host or cells: Biotin XCell F' E. coli cells
T2 sequence (O00560 107-275): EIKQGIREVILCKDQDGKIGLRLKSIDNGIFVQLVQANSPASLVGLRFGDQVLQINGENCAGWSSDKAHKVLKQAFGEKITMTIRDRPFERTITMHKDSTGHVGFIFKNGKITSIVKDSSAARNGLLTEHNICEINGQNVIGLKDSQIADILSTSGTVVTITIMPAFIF
Description: (§1) All SPR experiments were conducted with a BIAcore T200 instrument (GE Healthcare), at 25°C. A total of 8000 resonance units (RU) of biotinylated ligands (N‐terminal 6xHis tagged biotinylated syntenin tandem, syntenin tandem with C terminus, GRASP55 tandem or GST as control) were immobilized on a streptavidin‐sensor chip (GE Healthcare). Analytes (C58 and SyntOFF compounds) were perfused at 30 µl per min in running buffer (10 mM HEPES pH 7.4, 150 mM NaCl, 0.005% Tween20) at different concentrations. The reference channel was N‐terminal 6xHis tagged biotinylated GST protein. The injection time was 240 s, long enough for the sensorgrams to reach equilibrium, and the dissociation time was 240 s. To carry out these SPR experiments, we employed the method known as ‘single‐cycle kinetics’ described in 2006 by Karlsson and co‐workers (Karlsson, Katsamba, Nordin, Pol, & Myszka, 2006). It consists in injecting the analyte at increasing concentrations, without regeneration steps between each sample injection to avoid that folded‐proteins can be damaged after regeneration steps. Equilibrium dissociation constants (KD) were calculated by fitting the data to a simple Langmuir binding isotherm using GraphPad Prism. For determination of the apparent KD, signals obtained at equilibrium were plotted as a function of compound concentration. […]

[3] = tested on: T3, GRASP55‐PDZ tandem; test: Surface plasmon resonance (BIAcore), GRASP55 PDZ tandem; type: binding, human; details: 50µM ‐1000 µM
T3 construct: made in house; host or cells: Biotin XCell F' E. coli cells
Description: as §1

[4] = tested on: MCF‐7 SyntKO cells; test: Cancer cell viability (Annexin V/7-AAD flow cytometry), MCF-7 SyntKO; type: cell-based; details: concentrations up to 100 µM, 48 h
Description: The effects of the compounds C58 and SyntOFF were tested both on MCF‐7 and MCF‐7 SyntKO cells. Briefly, the cells were treated with increasing concentrations of the compounds for 48 h and early/late apoptosis was measured by using the FITC Annexin V apoptosis detection kit with 7‐AAD (Biolegend, San Diego, CA, USA) according to the manufacturer. Annexin V positive but 7‐AAD negative (early apoptotic cells) and Annexin V positive and 7‐AAD positive (late stage apoptosis) was determined by using FACS LSRII flow cytometer (BD Biosciences) and data were analysed with Flowjo software (Tree Star).

CC(C)[C@H](NC(=O)CSc1ccc(Cl)cc1)C(=O)O [Compound C58]
GST-GRASP JAM-C (signal ratio) [1]: 1
Kd [2]: 1030 µM
binding to GRASP55‐PDZ tandem [3]: no binding
toxicity (cell viability) [4]: not toxic

From publication PMC7737769, “Pharmacological inhibition of syntenin PDZ2 domain impairs breast cancer cell activities and exosome loading with syndecan and EpCAM cargo” (Journal of Extracellular Vesicles, 2020)
